Laboratory results taken from patent US11186589B2, “Cyanoindoline derivatives as NIK inhibitors” (Janssen Pharmaceutica NV, priority 2016, dated 2021).

System: KMS12-BM cells
Assay: Antiproliferative activity on KMS12-BM (NIK WT) multiple myeloma cells (CellTiter-Glo)
Assay type: cell-based, human
Details: Homo sapiens, KMS-12-BM, 96 h, 96 hr treatment, averaged values, read-out: KMS-12 Proliferation inhibition (IC50 (nM))
Procedure: (§1) Determination of Antiproliferative Activity on JJN-3 (NIK Translocated) and KMS12-BM (NIK WT) Multiple Myeloma Cells
(§2) All compounds tested were dissolved in DMSO and further dilutions were made in culture medium. Final DMSO concentration was 0.3% (v/v) in cell proliferation assays. Viability was assessed using CellTiter-Glo cell viability assay kit (Promega). The human JJN-3 and KMS12-BM cells (DSMZ) were cultured in RPMI 1640 medium supplemented with 2 mM L-glutamine, and 10% fetal calf serum (PAA). Cells were routinely kept as suspension cells at 37° C. in a humidified 5% CO2 atmosphere. Cells were passaged at a seeding density of 0.2×10^6/ml twice a week. Cells were seeded in black tissue culture treated 96-well plates (Perkin Elmer). Densities used for plating ranged from 15000 (JJN3) to 20000 (KMS12BM) cells per well in a total volume of […]. Drugs and/or solvents were added (15 μl) to a final volume of 150 μl. Following 96 hr of treatment, plates were removed from the incubator and allowed to equilibrate to room temperature for approx 10 min. 75 μl CellTiter-Glo reagent was added to each well that was then covered (Perkin Elmer Topseal) and shaken on plate shaker for 10 min. Luminescence was measured on a HTS Topcount (Perkin Elmer). Within an experiment, the results for each treatment were the mean of 2 replicate wells. For initial screening purposes, compounds were tested using a 9 point dilution curve (serial 1:3 dilutions). For each experiment, controls (containing no drug) and a blank incubation (containing cells read at the time of compound addition) were run in parallel. The blank value was subtracted from all control and sample values. For each sample, the mean value for cell growth (in relative light units) was expressed as a percentage of the mean value for cell growth of the control.

SMILES | IC50
COc1nc2c(cc1Nc1nccc(-c3cc(C#N)c4c(c3)[C@@](C)(CO)CN4)n1)CN(C1CC1)CC2 [Compound 52] | > 10000 nM
CN1CCc2ccc(Nc3nccc(-c4cc(C#N)c5c(c4)[C@@](C)(CO)CN5)n3)cc2C1 [Compound 31] | ~31 nM
CN1CCc2cc(CCC3CC3)c(Nc3nccc(-c4cc(C#N)c5c(c4)[C@@](C)(CO)CN5)n3)cc2CC1 (mixture of isomers) [Compound 26] | ~525 nM
COCCCc1nc2c(cc1Nc1nccc(-c3cc(C#N)c4c(c3)[C@@](C)(CO)CN4)n1)COCC2 [Compound 33] | > 10000 nM
CN1CCc2cc(Nc3nccc(-c4cc(C#N)c5c(c4)[C@@](C)(CO)CN5)n3)ccc2C1 [Compound 30] | 10 nM

Further lines, results first:

IC50 | SMILES
> 10000 nM | CC(C)CN1CCn2ncc(Nc3nccc(-c4cc(C#N)c5c(c4)[C@@](C)(CO)CN5)n3)c2C1=O [Compound 27b]
3980 nM | C[C@]1(CO)CNc2c(C#N)cc(-c3ccnc(Nc4cnn5c4OCCC5)n3)cc21 [Compound 14b]

System: JJN-3 cells
Assay: Antiproliferative activity on JJN-3 (NIK translocated) multiple myeloma cells (CellTiter-Glo)
Assay type: cell-based, human
Details: Homo sapiens, JJN-3, 96 h, JJN-3 (NIK translocated) cells, 96 hr treatment, averaged values, read-out: JJN-3 Proliferation inhibition (IC50 (nM))
Procedure: as §1, §2

SMILES | IC50
COc1nc2c(cc1Nc1nccc(-c3cc(C#N)c4c(c3)[C@@](C)(CO)CN4)n1)CN(C1CC1)CC2 [Compound 52] | 200 nM
CN1CCc2ccc(Nc3nccc(-c4cc(C#N)c5c(c4)[C@@](C)(CO)CN5)n3)cc2C1 [Compound 31] | 4 nM
CN1CCc2cc(CCC3CC3)c(Nc3nccc(-c4cc(C#N)c5c(c4)[C@@](C)(CO)CN5)n3)cc2CC1 (mixture of isomers) [Compound 26] | 692 nM
COCCCc1nc2c(cc1Nc1nccc(-c3cc(C#N)c4c(c3)[C@@](C)(CO)CN4)n1)COCC2 [Compound 33] | 776 nM
CN1CCc2cc(Nc3nccc(-c4cc(C#N)c5c(c4)[C@@](C)(CO)CN5)n3)ccc2C1 [Compound 30] | 4 nM

Further lines, results first:

IC50 | SMILES
1580 nM | CC(C)CN1CCn2ncc(Nc3nccc(-c4cc(C#N)c5c(c4)[C@@](C)(CO)CN5)n3)c2C1=O [Compound 27b]
155 nM | C[C@]1(CO)CNc2c(C#N)cc(-c3ccnc(Nc4cnn5c4OCCC5)n3)cc21 [Compound 14b]

Target: NIK/MAP3K14 (Homo sapiens (Human), UniProt Q99558)
Assay: Inhibition of auto-phosphorylation of recombinant human NF-kappaB-inducing kinase (NIK/MAP3K14) activity (AlphaScreen)
Assay type: biochemical
Details: averaged values over all measurements on all batches, 25 microM ATP
Procedure: Inhibition of Auto-Phosphorylation of Recombinant Human NF-kappaB-Inducing Kinase ([…]) Activity (AlphaScreen®)
NIK/MAP3K14 auto-phosphorylation activity was measured using the AlphaScreen® (αscreen) format (Perkin Elmer). All compounds tested were dissolved in dimethyl sulfoxide (DMSO) and further dilutions were made in assay buffer. Final DMSO concentration was […] in assays. Assay buffer was 50 mM Tris pH 7.5 containing 1 mM EGTA (ethylene glycol tetraacetic acid), 1 mM DTT (dithiothreitol), 0.1 mM Na3VO4, 5 mM MgCl2, 0.01% Tween® 20. Assays were carried out in 384 well Alphaplates (Perkin Elmer). Incubations consisted of compound, 25 microM Adenosine-5′-triphosphate (ATP), and 0.2 nM NIK/MAP3K14. Incubations were initiated by addition of GST-tagged NIK/MAP3K14 enzyme, carried out for 1 h at 25° C. and terminated by addition of stop buffer containing anti-phospho-[…] Ser176/180 antibody. Protein A Acceptor and Glutathione-Donor beads were added before reading using an EnVision® Multilabel Plate Reader (Perkin Elmer). Signal obtained in the wells containing blank samples was subtracted from all other wells and IC50's were determined by fitting a sigmoidal curve to % inhibition of control versus Log10 compound concentration.

NIK/MAP3K14, sequence (Q99558 whole entry): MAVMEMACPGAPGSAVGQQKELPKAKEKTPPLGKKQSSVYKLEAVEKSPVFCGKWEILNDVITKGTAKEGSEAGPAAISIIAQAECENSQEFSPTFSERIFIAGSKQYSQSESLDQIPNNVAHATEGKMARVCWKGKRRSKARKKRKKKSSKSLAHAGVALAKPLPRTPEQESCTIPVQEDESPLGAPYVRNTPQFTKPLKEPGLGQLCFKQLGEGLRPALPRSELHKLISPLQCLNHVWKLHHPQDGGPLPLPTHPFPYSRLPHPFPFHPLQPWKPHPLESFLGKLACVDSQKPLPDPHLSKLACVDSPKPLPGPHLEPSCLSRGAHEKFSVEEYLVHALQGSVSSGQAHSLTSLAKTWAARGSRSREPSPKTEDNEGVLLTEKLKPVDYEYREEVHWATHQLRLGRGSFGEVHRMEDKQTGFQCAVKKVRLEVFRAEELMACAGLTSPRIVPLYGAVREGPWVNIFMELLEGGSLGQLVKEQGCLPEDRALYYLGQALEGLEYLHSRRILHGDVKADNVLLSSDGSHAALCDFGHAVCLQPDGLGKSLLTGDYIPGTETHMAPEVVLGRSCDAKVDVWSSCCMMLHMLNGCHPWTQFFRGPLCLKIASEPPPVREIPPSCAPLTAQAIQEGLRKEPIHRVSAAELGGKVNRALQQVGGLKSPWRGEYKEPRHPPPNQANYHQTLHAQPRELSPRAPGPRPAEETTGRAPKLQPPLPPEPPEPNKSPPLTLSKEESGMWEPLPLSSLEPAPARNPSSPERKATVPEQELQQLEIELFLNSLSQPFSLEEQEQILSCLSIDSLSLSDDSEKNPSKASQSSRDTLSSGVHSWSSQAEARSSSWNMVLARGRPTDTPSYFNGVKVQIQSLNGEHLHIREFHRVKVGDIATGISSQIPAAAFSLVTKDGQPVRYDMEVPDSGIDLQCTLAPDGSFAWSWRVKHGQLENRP

SMILES | IC50
COc1nc2c(cc1Nc1nccc(-c3cc(C#N)c4c(c3)[C@@](C)(CO)CN4)n1)CN(C1CC1)CC2 [Compound 52] | 7.8 nM
CN1CCc2ccc(Nc3nccc(-c4cc(C#N)c5c(c4)[C@@](C)(CO)CN5)n3)cc2C1 [Compound 31] | 1.4 nM
CN1CCc2cc(CCC3CC3)c(Nc3nccc(-c4cc(C#N)c5c(c4)[C@@](C)(CO)CN5)n3)cc2CC1 (mixture of isomers) [Compound 26] | 5.1 nM
COCCCc1nc2c(cc1Nc1nccc(-c3cc(C#N)c4c(c3)[C@@](C)(CO)CN4)n1)COCC2 [Compound 33] | 8.1 nM
CN1CCc2cc(Nc3nccc(-c4cc(C#N)c5c(c4)[C@@](C)(CO)CN5)n3)ccc2C1 [Compound 30] | 0.8 nM

Results, then the molecule that gave them:

IC50 | SMILES
4.47 nM | CC(C)CN1CCn2ncc(Nc3nccc(-c4cc(C#N)c5c(c4)[C@@](C)(CO)CN5)n3)c2C1=O [Compound 27b]
2 nM | C[C@]1(CO)CNc2c(C#N)cc(-c3ccnc(Nc4cnn5c4OCCC5)n3)cc21 [Compound 14b]

System: P-IKKα levels in L363 cells
Assay: Effect of compounds on P-IKKα levels in L363 (NIK translocated multiple myeloma) cells
Assay type: cell-based, human
Details: Homo sapiens, L-363, 2 h, 2 hr treatment, averaged values, read-out: Inhibition of pIKKα_L-363 (IC50 (nM))
Procedure: Effect of Compounds on P-IKKα Levels in L363 (NIK Translocated Multiple Myeloma) Cells
All compounds tested were dissolved in DMSO and further dilutions were made in culture medium. Final DMSO concentration was 1% (v/v) in cell assays. The human L363 cells (ATCC) were cultured in RPMI 1640 medium supplemented with GlutaMax and 10% fetal calf serum (PAA). Cells were routinely maintained at densities of 0.2×10^6 cells per ml—1×10^6 cells per ml at 37° C. in a humidified 5% CO2 atmosphere. Cells were passaged twice a week splitting back to obtain the low density. Cells were seeded in 96 well plates (Nunc 167008) at 2×10^6 per ml media in a volume of 75 μl per well plus 25 μl 1 μg/ml recombinant human B-cell activating factor (BAFF/BLyS/TNFSF13B). Seeded cells were incubated at 37° C. in a humidified 5% CO2 atmosphere for 24 hr. Drugs and/or solvents were added (20 μl) to a final volume of 120 μl. Following 2 hr treatment plates were removed from the incubator and cell lysis was achieved by the addition of 30 μl 5× lysis buffer followed by shaking on a plate shaker at 4° C. for 10 min. At the end of this incubation lysed cells were centrifuged at 800×g for 20 min at 4° C. and the lysate was assessed for P-IKKα levels by sandwich immuno-assay carried out in anti-rabbit antibody coated Mesoscale plates. Within an experiment, the results for each treatment were the mean of 2 replicate wells. For initial screening purposes, compounds were tested using an 8 point dilution curve (serial 1:3 dilutions). For each experiment, controls (containing MG132 and BAFF but no test drug) and a blank incubation (containing MG132 and BAFF and 10 μM ADS125117, a test concentration known to give full inhibition) were run in parallel. The blank incubation value was subtracted from all control and sample values. To determine the IC50 a sigmoidal curve was fitted to the plot of % inhibition of control P-IKKα levels versus Log10 compound concentration.

SMILES | IC50
COc1nc2c(cc1Nc1nccc(-c3cc(C#N)c4c(c3)[C@@](C)(CO)CN4)n1)CN(C1CC1)CC2 [Compound 52] | 20 nM
CN1CCc2ccc(Nc3nccc(-c4cc(C#N)c5c(c4)[C@@](C)(CO)CN5)n3)cc2C1 [Compound 31] | 2 nM
CN1CCc2cc(CCC3CC3)c(Nc3nccc(-c4cc(C#N)c5c(c4)[C@@](C)(CO)CN5)n3)cc2CC1 (mixture of isomers) [Compound 26] | 501 nM
COCCCc1nc2c(cc1Nc1nccc(-c3cc(C#N)c4c(c3)[C@@](C)(CO)CN4)n1)COCC2 [Compound 33] | 17 nM
CN1CCc2cc(Nc3nccc(-c4cc(C#N)c5c(c4)[C@@](C)(CO)CN5)n3)ccc2C1 [Compound 30] | 2 nM

Now from value to molecule:

IC50 | SMILES
13 nM | CC(C)CN1CCn2ncc(Nc3nccc(-c4cc(C#N)c5c(c4)[C@@](C)(CO)CN5)n3)c2C1=O [Compound 27b]
6 nM | C[C@]1(CO)CNc2c(C#N)cc(-c3ccnc(Nc4cnn5c4OCCC5)n3)cc21 [Compound 14b]
